Test [1] deals with T1, m1 receptors (Rattus norvegicus, UniProt P08482).
T1 construct: expressed in transfected cells; host or cells: CHO cells
T1 sequence (P08482 1-460): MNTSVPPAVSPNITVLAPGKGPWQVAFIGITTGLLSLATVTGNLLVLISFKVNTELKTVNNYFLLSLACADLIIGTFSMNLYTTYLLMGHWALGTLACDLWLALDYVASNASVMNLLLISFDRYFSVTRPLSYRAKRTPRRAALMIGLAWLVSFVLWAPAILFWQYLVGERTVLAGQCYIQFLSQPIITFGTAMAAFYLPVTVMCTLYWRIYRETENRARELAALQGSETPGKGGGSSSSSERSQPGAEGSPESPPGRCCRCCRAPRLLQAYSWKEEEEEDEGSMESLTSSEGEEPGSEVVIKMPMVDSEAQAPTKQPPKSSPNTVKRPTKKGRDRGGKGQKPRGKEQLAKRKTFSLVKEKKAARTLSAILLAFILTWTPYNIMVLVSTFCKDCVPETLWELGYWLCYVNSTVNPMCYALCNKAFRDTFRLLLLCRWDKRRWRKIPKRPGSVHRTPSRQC
Briefly: PI hydrolysis in CHO cells transfected with m1 receptors. The format is cell-based. Conditions: CHO m1.

The target of test [2] is T2, m4 subtype receptors (PC12 cells) (Rattus norvegicus, UniProt P08485).
T2 construct: endogenous in cells; host or cells: PC12 cells
T2 sequence (P08485 1-478): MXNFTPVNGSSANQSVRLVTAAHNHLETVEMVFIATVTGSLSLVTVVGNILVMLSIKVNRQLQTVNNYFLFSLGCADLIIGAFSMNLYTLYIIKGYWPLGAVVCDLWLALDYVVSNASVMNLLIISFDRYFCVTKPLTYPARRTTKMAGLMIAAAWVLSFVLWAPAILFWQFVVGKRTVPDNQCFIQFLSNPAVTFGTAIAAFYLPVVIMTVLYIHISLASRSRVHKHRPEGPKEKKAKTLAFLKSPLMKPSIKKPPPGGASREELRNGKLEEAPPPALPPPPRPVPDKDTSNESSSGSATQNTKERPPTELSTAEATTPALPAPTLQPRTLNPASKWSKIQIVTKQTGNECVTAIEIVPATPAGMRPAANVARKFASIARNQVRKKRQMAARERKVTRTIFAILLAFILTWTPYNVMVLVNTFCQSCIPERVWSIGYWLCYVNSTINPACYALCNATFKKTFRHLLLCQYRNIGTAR
Kind of test: Inhibition of adenylate cyclase activity in PC12 cells. The format is cell-based. Particulars: PC12 m4; tested at 1mM. The protocol:
(§1) The new compounds AF150, AF151, AF150(S) and AF125 were assayed for their ability to stimulate PI in CHO cells transfected with m1 and m3 receptors, respectively (Buck and Fraser, loc cit), and in cultured human neuroblastoma cells, line SK-N-SH, which express mainly the m3 subtype, but not the m1 subtype (Pinkas-Kramarski et al, Neurosci. Lett. 188: 335-340, 1990; Luthin et al Mol. Pharmacol. 34: 327-333, 1988). These compounds were also assayed on cultured PC12 cells which express mainly m4 subtype receptors and are coupled to inhibition of AC activity (Pinkas-Kramarski et al, loc cit).
(§2) Stimulation of PI breakdown was assayed using the method described by Stein et al (EMBO J. 7: 3031-3035, 1988), and modulation of AC activity was assayed by the method of Stein et al, loc cit and Pinkas-Kramarski et al (FEBS Lett., 239: 174-178, 1988). […]

The target in test [3] is T3, M2 muscarinic receptors (Rattus norvegicus, UniProt P10980).
T3 construct: displacing from rat brain homogenates, cerebellum or frontal cortex; from tissue; host or cells: rat cerebellum homogenates
T3 sequence (P10980 1-466): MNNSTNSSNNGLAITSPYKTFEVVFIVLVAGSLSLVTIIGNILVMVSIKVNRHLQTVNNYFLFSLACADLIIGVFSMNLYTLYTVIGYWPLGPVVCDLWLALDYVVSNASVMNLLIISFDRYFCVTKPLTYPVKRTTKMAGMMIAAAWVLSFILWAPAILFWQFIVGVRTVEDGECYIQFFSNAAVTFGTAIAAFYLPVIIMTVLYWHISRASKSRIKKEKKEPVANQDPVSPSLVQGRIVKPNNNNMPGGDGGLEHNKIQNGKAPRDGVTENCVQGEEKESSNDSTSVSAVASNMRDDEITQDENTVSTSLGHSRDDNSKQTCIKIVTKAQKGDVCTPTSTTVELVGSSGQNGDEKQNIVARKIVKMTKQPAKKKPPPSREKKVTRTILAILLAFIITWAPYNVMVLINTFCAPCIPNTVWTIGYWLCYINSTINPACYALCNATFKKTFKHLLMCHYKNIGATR
Briefly: Displacement of 3H-QNB from rat cerebellum, 50 mM phosphate buffer. The format is binding. Particulars: for Ki / % H / % H2 / %L / % L2: cerebellum; for RATIOS d:c: KL2 : KH2 cerebellum (3H-QNB).

Test [4] has as its system rat cerebral cortex synaptosomes. Kind of test: Synaptosomal 3H-ACh release, basal and K+-evoked. Conditions: 0.1 mM. The text has this:
The effects of AF150 (and for comparison purposes, AF125, MeN-A-343 and oxotremorine) on basal- and K^+-evoked release of ^3H-ACh were studied on synaptosomes prepared from rat cerebral cortex using the methods described in detail by Pittel et al (J. Neurochem., 55: 665-672, 1990). […] On the other hand, the action of AF150 on presynaptic muscarinic receptors, causing an increase in K^+-evoked ACh release, can be considered either as an M2 antagonistic or an M1 agonistic effect. […] The existence of muscarinic autoreceptors that increase ACh release was manifested also in the PNS in smooth muscle preparation (Kilbinger and Nafziger, Naunyn Schmiedebergs Arch. Pharmacol. 328: 304-309, 1985).

The target in test [5] is T4, M1 muscarinic receptor (Rattus norvegicus, UniProt P08482).
T4 sequence (P08482 1-460): T1 sequence (P08482 1-460)
Briefly: Displacement of 3H-QNB from rat cerebral cortex, 50 mM phosphate buffer. Conditions: for RATIOS c:a: KH2 cerebellum : KH1 cortex (3H-QNB); for % H1 / % L1: cortex, Table 5; for RATIOS b:a: KL1 : KH1 cortex (3H-QNB); for RATIOS d:b: KL2 cerebellum : KL1 cortex (3H-QNB). The class given is binding. In general terms: Displacement assays read how much labelled ligand stays bound in the presence of the test substance.

The subject of test [6] is muscarinic receptors. Kind of test: (-)3H-QNB binding to rat cerebral cortex homogenates with and without Cu++ treatment.
In test [7] the target is T4, M1 muscarinic receptor. Briefly: Displacement of 3H-PZ from rat cerebral cortex, 10 mM phosphate buffer. The class given is binding. Further details: from tissue; host or cells: rat cerebral cortex homogenates. Conditions: for RATIOS c:a: KH cerebellum (3H-QNB) : KH cortex (3H-PZ).
The target of test [8] is T5, m3 subtype (SK-N-SH cells) (Homo sapiens, UniProt P20309).
T5 construct: endogenous in cells; host or cells: SK-N-SH human neuroblastoma cells
Briefly: PI hydrolysis in SK-N-SH neuroblastoma cells. The class given is cell-based. How it is done: as §1, §2

The target in test [9] is T4, M1 muscarinic receptor. Kind of test: Displacement of 3H-PZ from cortical binding sites, Tris/Mn buffer, with and without GppNHp. Details: from tissue; host or cells: rat cerebral cortex homogenates. The text has this: The binding of agonists to M1 muscarinic receptors and the effect of guanylyl imidophosphate (GppNHp). Agonists are known to be coupled with guanine nucleotide binding proteins (G proteins).
Non-hydrolyzable guanine nucleotides such as GppNHp dissociate the G protein from the receptor and decrease the affinity of the receptor for agonists but not for antagonists. […] Molec.
Under these conditions agonists of high efficacy ("full agonists") bind directly to the M1 receptor subtype with two affinities. […] The ratio of low and high affinities (KL/KH) of the M1 receptor may predict the relative efficacies of agonists to activate putative M1 receptor-mediated second messenger systems.
KH, KL, %H and %L are the apparent inhibition constants of the tested ligands for the high and low affinity sites, respectively. G is GppNHp (guanylyl imidodiphosphate), and was used in 0.1 mM concentration. Displacement of ^3H-PZ from cortical binding sites was performed in Tris/Mn buffer (pH 7.4) for one hour at 25°C; the buffer included 1 mM EDTA and 2mM Mn^++ ions. […] The binding data were analyzed using a GraphPAD program and were fitted to one or two components. Values are means from 1-3 experiments carried out in triplicates.

The mark [10] stands for this setting: 3H-QNB-Binding KH2 (c), Table 5.
Where [11] appears, read: with Cu++ pretreatment (100 µM, 30 minutes).
Setting [12] is: with Cu++ pretreatment (100 µM, 30 minutes), read-out: KL.
Where [13] appears, read: without pretreatment, read-out: KH.
Setting [14] is: without pretreatment, read-out: KL.
Setting [15] is: 3H-QNB-Binding KL2 (d), Table 5.

From patent EP0452101B1, “Spiro bridged and unbridged heterocyclic compounds” (ISRAEL INSTITUTE FOR BIOLOGICAL RESEARCH, priority 1990, dated 1991) come the findings set out here.

Like-named read-outs stand apart in the source and are kept apart here.

T5 sequence (P20309 whole entry): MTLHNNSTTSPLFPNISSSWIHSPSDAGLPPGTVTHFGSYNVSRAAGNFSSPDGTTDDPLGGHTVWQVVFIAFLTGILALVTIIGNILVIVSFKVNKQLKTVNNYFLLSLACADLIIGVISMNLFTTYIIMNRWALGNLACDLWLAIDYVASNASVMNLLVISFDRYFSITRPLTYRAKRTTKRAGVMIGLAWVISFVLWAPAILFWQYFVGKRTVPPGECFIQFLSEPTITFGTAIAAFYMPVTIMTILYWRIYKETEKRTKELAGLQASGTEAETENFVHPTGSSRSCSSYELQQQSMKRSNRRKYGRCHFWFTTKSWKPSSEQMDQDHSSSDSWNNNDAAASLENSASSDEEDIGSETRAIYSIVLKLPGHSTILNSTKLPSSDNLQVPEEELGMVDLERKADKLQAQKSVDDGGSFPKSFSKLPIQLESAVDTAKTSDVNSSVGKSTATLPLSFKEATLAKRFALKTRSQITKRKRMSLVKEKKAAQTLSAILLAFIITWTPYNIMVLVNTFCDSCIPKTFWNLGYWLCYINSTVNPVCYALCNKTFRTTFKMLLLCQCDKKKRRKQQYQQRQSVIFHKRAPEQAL

As to `CC1=NCC2(CCN(C)CC2)S1` [AF150(S), 2-Methyl-spiro(1,3-thiazoline-5,4')-1'-methylpiperidine], the “PI, % of carbachol effect” value in [1] was determined as 17%. Also, the “PI (phosphoinositides hydrolysis)” value in [1] (tested at 1mM) was “+”.

As for `C[N+](C)(C)CCOC(N)=O` [Carbachol, reference compound], in test [2], the “AC (adenylate cyclase activity)” value was “+++”.

In the case of `C[N+](C)(C)CC#CCOC(=O)Nc1cccc(Cl)c1` [McN-A-343], the Ki in test [3] (setting [10]) turned out to be 11 µM; in test [3] (Table 4, read-out: 3H-QNB-Binding KH (c)) it was 24.4 µM; in [6] (with Cu++ pretreatment (100 µM, 30 minutes), read-out: KH), 0.18 ± 0.09 µM; in test [6] (setting [12]), 5.7 ± 0.2 µM; in [6] (setting [13]), 0.34 ± 0.1 µM; in [6] (setting [14]), 8.5 ± 0.8 µM. Also, in test [7] (3H-PZ-Binding KH (a)), the Ki was determined as 3.8 µM. The “% H” value in [3] (Table 4) and in test [7] was 100% each time. Further, in test [3] (Table 5), the “% H2” value is listed as 100%. Also, the “Basal 3H-ACh release” value in [4] is given as 144%. The “K+-evoked 3H-ACh release” value in test [4] was 172%. Besides, the “RATIOS c:a” value in test [5] worked out at 1.9; in test [7] it was 6.4. The “% H1” value in test [5] worked out at 100%. For the same molecule, the “%H (% of high affinity state)” value in test [6] (setting [11]) is listed as 30±7%; in [6] (without pretreatment) it was 13±5%.

On to `C[N+](C)(C)CC#CCN1CCCC1=O` [Oxotremorine-M, reference compound], for which the Ki in test [3] (setting [10]) stood at 0.069 µM; in test [3] (3H-QNB-Binding KH (c), Table 4), 0.069 µM; in [3] (setting [15]), 5.2 µM; in test [3] (3H-QNB-Binding KL (d), Table 4), 5.2 µM; in test [9] (KH, +G (0.1 mM GppNHp)), 0.35 µM; in test [9] (KH, -G (without GppNHp)), 0.11 µM. The Ki in test [9] (KL, +G (0.1 mM GppNHp)) came to 4.2 µM; in [9] (KL, -G), 6.7 µM; in test [7] (3H-PZ-Binding KH (a)), 0.1 µM; in test [7] (3H-PZ-Binding KL (b)), 6.7 µM. In test [3], the “RATIOS d:c” value was found to be 75. The “% H” value is 49% in test [3] (Table 4), 2.7% in [9] (+G (0.1 mM GppNHp)), 53% in test [9] (-G) and 53% in test [7]. In addition, the “%L” value was determined as 51% in test [3] (Table 4), 73% in test [9] (+G (0.1 mM GppNHp)), 47% in test [9] (-G) and 47% in test [7]. For the same molecule, the “% H2” value in [3] (Table 5) was 49%. Besides, the “% L2” value in test [3] (Table 5) is 51%. Moreover, the results for the “RATIOS c:a” value in test [5] and in test [7] were 0.6 and 0.69, respectively. Moreover, the entries for the “RATIOS b:a” value in test [5] and in test [7] were 336 and 67, respectively. Besides, the results for the “RATIOS d:b” value in test [5] and in test [7] (KL cerebellum (3H-QNB) : KL cortex (3H-PZ)) were 0.14 and 0.78, respectively. Moreover, the “% H1” value in test [5] stood at 26%. Besides, the “% L1” value in test [5] is given as 74%. Moreover, the “accumulation of inositol-1-phosphate (IP1) stimulated over basal level” value in test [8] turned out to be 5.24 fold. Further, the “KL-G / KH-G” value in [9] (ratio of low and high affinities without GppNHp) is on record as 61.

In the case of `O=C1CCCN1CC#CCN1CCCC1` [Oxotremorine], the Ki in test [3] (setting [10]) is 0.014 µM; in test [3] (3H-QNB-Binding KH (c), Table 4), 0.014 µM; in test [3] (setting [15]), 0.58 µM; in [3] (3H-QNB-Binding KL (d), Table 4) it was 0.58 µM; in test [6] (setting [12]) it was 7.2 ± 1.7 µM; in [6] (setting [13]), 0.02 ± 0.005 µM. For the same molecule, the Ki in [6] (setting [14]) stood at 13.3 ± 1.4 µM. Moreover, the “RATIOS d:c” value in test [3] stood at 41. Besides, in [3] (Table 4), the “% H” value is 35%. The “%L” value in [3] (Table 4) came out at 65%. In test [3] (Table 5), the “% H2” value worked out at 35%. Moreover, the “% L2” value in test [3] (Table 5) was 65%. For the same molecule, the “K+-evoked 3H-ACh release” value in test [4] came to 56%. The “RATIOS c:a” value in test [5] was 0.9. The “RATIOS b:a” value in test [5] came out at 100. The “RATIOS d:b” value in test [5] was found to be 0.36. In addition, the “% H1” value in test [5] is 13%. For the same molecule, in test [5], the “% L1” value is 87%. Further, the “%H (% of high affinity state)” value in test [6] (setting [11]) is recorded as 51%; in [6] (with Cu++ pretreatment (100 µM, 30 minutes), listed as 3), 51±7%; in [6] (without pretreatment), 32%; in [6] (without pretreatment, listed as 3), 32±3%.
